According to BindingDB's records for patent US10100058 (Gilead Sciences, 2018):

Biological target: Calcium/calmodulin-dependent protein kinase type II subunit delta (Homo sapiens, UniProt Q13557)
Test: CaMKII delta Biochemical Assay
Procedure: The biochemical activity of recombinant CaMKIIδ was measured by monitoring the phosphorylation of a target peptide using Homogenous Time Resolved Fluorescence (HTRF) technology from CisBio Bioassays.

Chain of Calcium/calmodulin-dependent protein kinase type II subunit delta (Q13557 whole entry): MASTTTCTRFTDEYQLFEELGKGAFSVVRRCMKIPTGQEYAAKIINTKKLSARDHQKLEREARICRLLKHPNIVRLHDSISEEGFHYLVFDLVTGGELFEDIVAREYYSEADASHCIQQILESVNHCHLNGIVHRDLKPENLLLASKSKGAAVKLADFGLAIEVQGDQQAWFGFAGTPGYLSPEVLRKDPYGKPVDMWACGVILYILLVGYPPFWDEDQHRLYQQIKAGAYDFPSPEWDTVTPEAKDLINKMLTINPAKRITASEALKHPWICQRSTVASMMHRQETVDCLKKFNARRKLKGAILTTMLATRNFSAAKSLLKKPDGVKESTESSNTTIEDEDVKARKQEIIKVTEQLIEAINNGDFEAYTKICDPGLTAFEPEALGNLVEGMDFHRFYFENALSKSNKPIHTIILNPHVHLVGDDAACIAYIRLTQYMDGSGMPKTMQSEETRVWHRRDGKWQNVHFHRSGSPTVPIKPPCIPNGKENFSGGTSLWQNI

SMILES	IC50 [nM]
CCC(N)CNC(=O)c1ccnc(-c2cnn3ccc(-c4cccs4)nc23)c1 (stereo not drawn) [US10100058, Example 25]	8.62
CCN(CC)[C@@H](CO)CNC(=O)c1ccnc(-c2cnn3ccc(-c4ccccc4)nc23)c1 [US10100058, Example 58]	3.35
CC(C)(N)CNC(=O)c1ccnc(-c2cnn3ccc(-c4ccccc4)nc23)c1 [US10100058, Example 64]	99.9
CCN(CC)[C@@H](C)CNC(=O)c1cc(-c2cnn3ccc(-c4cccs4)nc23)nc(N2CC(NS(=O)(=O)Cc3ccon3)C2)c1 [US10100058, Example 175]	0.24
CCN(CC)[C@@H](C)CNC(=O)c1cc(-c2cnn3ccc(-c4cccs4)nc23)nc(N2CC[C@H]2C(=O)NCCO)c1 [US10100058, Example 297]	0.33
CN(CCn1ccnc1)c1cc(C(=O)N2CC3CCC(C2)NC3)cc(-c2cnn3ccc(-c4cccs4)nc23)n1 (stereo not drawn) [US10100058, Example 321]	9.11
COC1CN(c2cc(C(=O)N3CC[C@H](N)C3)cc(-c3cnn4ccc(-c5cccs5)nc34)n2)C1 [US10100058, Example 327]	9.25
CCN(CC)[C@@H](C)CNC(=O)c1cc(OCCN(C)C)nc(-c2cnn3ccc(-c4cccs4)nc23)c1 [US10100058, Example 347]	0.1
